For one data set, the system named is N-linked glycosylation. In words: D54-ERLucT cell based luciferase assay for inhibition of N-linked glycosylation. To be noted: D54-ERLucT cells, luciferase activation. An excerpt:
(§1) The HTS approach using the bioluminescent N-linked glycosylation reporter (CCR 2011) in D54-ERLucT and D54-LucT cells has been previously described (Bennett, et al., Transl Oncol 2013, 6, 382-391). Briefly, the primary cell-based screen detects site occupancy of NLG sequons using a modified luciferase protein translated into the ER. […] The methodology for the primary (D54-ERlucT), secondary (D54-LucT), and tertiary (luciferase inhibition) screens as well and toxicity assays with CelltitreGlo are deposited in Pubchem (AID 588693).
The primary screen was developed in the D54 glioma cell line using a modified P. pyralis luciferase gene (ER-LucT) that is ER translated and glycosylated at three N-linked glycosylation consensus sequences. Glycosylation of the reporter inactivates luciferase enzymatic activity providing a robust methodology to detect inhibition of this process. D54 cells expressing a non-ER translated luciferase (LucT) insensitive to inhibition of N-linked glycoysation were used as a secondary screen for false positives. The primary screen was performed in duplicate and values were normalized to the average of positive control wells (Tunicamycin) minus averaged neutral vehicle treated wells per run. Compounds with replicate activity greater than three standard deviations above the mean average of control wells were selected for further study. A subset of 1,845 compounds met this criterion, and were advanced to simultaneous retesting in both the primary screen and a secondary (false positive) cell-based screen. […] Compounds were further triaged from consideration by consulting the Pubchem bioassay database and deprioritizing compounds showing a promiscuity rate higher than 5% across assays or by removing PAINS scaffolds (Baell, et al., J Med Chem 2010, 53, 2719-2740). Remaining compounds were assessed by medicinal chemistry review to score synthetic tractability and known issues with instability, poor solubility, or toxicity. This analysis yielded 39 compounds that were tested in a cell-free assay to detect luciferase inhibitors (Auld, et al., Proc Natl Acad Sci USA 2010, 107, 4878-4883) and by western blot analysis to detect gel mobility changes of the luciferase reporter, consistent with inhibition of N-linked glycosylation. This approach identified one aminobenzamidosulfonamide compound that blocked N-linked glycosylation.
(§2) To better understand the connection between structure and activity, analogs were prepared and tested in the D54-ERLucT cell based assay for inhibition of N-linked glycosylation (FIG. 1B). The assay was used to estimate and compare AC40 values among analogs and to guide the design of improved compounds that inhibited N-linked glycosylation. This effort generated 36 unique compounds with modifications to the amine component of the sulfonamide functionality (red), the pyrrolidine moiety (blue) or the methylaminothiazole group (green). Generally, incorporation of larger sulfonamides (i.e., larger secondary amines appended to the sulphone) was not well tolerated, resulting in erosion of potency (7 analogs). However, steric interactions could be mitigated by the introduction of a hydrogen bond accepting oxygen in a larger cyclic amine. Thus, morpholine was determined to be an acceptable surrogate for the dimethylamine component of the sulfonamide (FIGS. 1A-1D). The pyrrolidine group (blue) was replaced with various alkyl, cycloalkyl, and amine groups (7 compounds). The aminothiazole moiety was derivatized most extensively of all three regions (green highlighted area, 22 analogs). […] Analogs with the highest potency in the luciferase assay were retested with western blot analysis to insure that measurements of luciferase activation corresponded to loss of N-linked glycosylation.

In another data set the test system is HepG2 cells. Put plainly: Celltiter Glo viability assay, HepG2. The format is cell-based. Particulars: HEPG2 EC50 over NLG AC40.
Source text: as §1, §2
On the technique in general: Cellular ATP, detected with luciferase, serves as a proxy for viable cell number.

Data set [1] in a line: Celltiter Glo viability assay, HepG2. The class given is cell-based. To be noted: human, HepG2 cells; HEPG2, 72 h of compound exposure; read-out: Cytotoxicity Assay Mean EC50.
Source text: as §1, §2

The test system of a further data set is HEK293 cells. In words: Celltiter Glo viability assay, HEK293. Particulars: HEK293 EC50 over NLG AC40. The class given is cell-based.
Source text: as §1, §2

The nature of data set [2]: Celltiter Glo viability assay, HEK293. The class given is cell-based. Particulars: human, HEK293 cells; HEK293, 72 h of compound exposure; read-out: Cytotoxicity Assay Mean EC50.
Source text: as §1, §2

The term EC50 denotes the midpoint of the concentration-response curve.

With `COc1ccc2nc(NC(=O)c3cc(S(=O)(=O)N(C)C)ccc3N3CCCC3)sc2c1` [Entry 9, 5-(dimethylsulfamoyl)-N-(6-methoxy-1,3-benzothiazol-2-yl)-2-pyrrolidin-1-ylbenzamide], the “NLG Inhibition ASSAY Potency Mean AC40” value in the data set with N-linked glycosylation came to 13.1 µM. Besides, in the data set with N-linked glycosylation, the “NLG Inhibition max act, %” value turned out to be 85.7%. The “Selectivity (EC50/AC40)” value in the data set on HepG2 cells and in the data set on HEK293 cells was more than 2.3 throughout. In addition, the EC50 at 72 h in data set [1] and in data set [2] was more than 30 µM in each case.

For `CN(C)S(=O)(=O)c1ccc(N2CCCC2)c(C(=O)Nc2cccnc2)c1` [Entry 10, 5-(dimethylsulfamoyl)-N-pyridin-3-yl-2-pyrrolidin-1-ylbenzamide], the “NLG Inhibition max act, %” value in the data set on N-linked glycosylation worked out at 48.4%. The half-maximal effective concentration (EC50) at 72 h in data set [1] and in data set [2] was more than 30 µM throughout.

For the compound `CN(C)S(=O)(=O)c1ccc(N2CCCC2)c(C(=O)Nc2ccncc2)c1` [Entry 11, 5-(dimethylsulfamoyl)-N-pyridin-4-yl-2-pyrrolidin-1-ylbenzamide], the “NLG Inhibition max act, %” value in the data set on N-linked glycosylation was found to be 25%. Also, the 50% effective concentration (EC50) at 72 h in data set [1] and in data set [2] was more than 30 µM throughout.

On to `CN(C)S(=O)(=O)c1ccc(N2CCCC2)c(C(=O)Nc2ccccc2)c1` [Entry 12, 5-(dimethylsulfamoyl)-N-phenyl-2-pyrrolidin-1-ylbenzamide], for which the “NLG Inhibition ASSAY Potency Mean AC40” value in the data set on N-linked glycosylation turned out to be 1.1 µM. The “NLG Inhibition max act, %” value in the data set on N-linked glycosylation was found to be 183.0%. Further, the “Selectivity (EC50/AC40)” value with HepG2 cells and in the data set on HEK293 cells was more than 27.8 throughout. For the same compound, the half-maximal effective concentration (EC50) at 72 h in data set [1] and in data set [2] was more than 30 µM each time.

Consider `Cc1ccccc1NC(=O)c1cc(S(=O)(=O)N(C)C)ccc1N1CCCC1` [Entry 13, 5-(dimethylsulfamoyl)-N-(2-methylphenyl)-2-pyrrolidin-1-ylbenzamide], for which, in the data set on N-linked glycosylation, the “NLG Inhibition max act, %” value worked out at 10.7%. Besides, the EC50 at 72 h in data set [1] and in data set [2] was more than 30 µM in each case.

Take `Cc1ccc(NC(=O)c2cc(S(=O)(=O)N(C)C)ccc2N2CCCC2)cc1` [Entry 14, 5-(dimethylsulfamoyl)-N-(4-methylphenyl)-2-pyrrolidin-1-ylbenzamide]: the “NLG Inhibition ASSAY Potency Mean AC40” value with N-linked glycosylation is 1.2 µM. For the same compound, the “NLG Inhibition max act, %” value in the data set with N-linked glycosylation came to 305.0%. Also, the “Selectivity (EC50/AC40)” value in the data set with HepG2 cells and with HEK293 cells was more than 25.0 each time. Moreover, the concentration giving a half-maximal response (EC50) at 72 h in data set [1] and in data set [2] was more than 30 µM each time.

Consider `COc1ccccc1NC(=O)c1cc(S(=O)(=O)N(C)C)ccc1N1CCCC1` [Entry 15, 5-(dimethylsulfamoyl)-N-(2-methoxyphenyl)-2-pyrrolidin-1-ylbenzamide], for which the “NLG Inhibition max act, %” value with N-linked glycosylation is 30.1%. Also, the half-maximal effective concentration (EC50) at 72 h in data set [1] and in data set [2] was more than 30 µM in each case.

Regarding `COc1ccc(NC(=O)c2cc(S(=O)(=O)N(C)C)ccc2N2CCCC2)cc1` [Entry 16, 5-(dimethylsulfamoyl)-N-(4-methoxyphenyl)-2-pyrrolidin-1-ylbenzamide], the “NLG Inhibition ASSAY Potency Mean AC40” value with N-linked glycosylation amounted to 10.3 µM. In the data set with N-linked glycosylation, the “NLG Inhibition max act, %” value turned out to be 79.9%. In addition, the “Selectivity (EC50/AC40)” value in the data set with HepG2 cells and with HEK293 cells was more than 2.9 throughout. The EC50 at 72 h in data set [1] and in data set [2] was more than 30 µM throughout.

With `CN(C)S(=O)(=O)c1ccc(N2CCCC2)c(C(=O)Nc2ccccc2F)c1` [Entry 17, 5-(dimethylsulfamoyl)-N-(2-fluorophenyl)-2-pyrrolidin-1-ylbenzamide], the concentration for a half-maximal effect (EC50) at 72 h in data set [1] and in data set [2] was more than 30 µM throughout.

Consider `CN(C)S(=O)(=O)c1ccc(N2CCCC2)c(C(=O)Nc2cccc(F)c2)c1` [Entry 18, 5-(dimethylsulfamoyl)-N-(3-fluorophenyl)-2-pyrrolidin-1-ylbenzamide], for which the “NLG Inhibition ASSAY Potency Mean AC40” value with N-linked glycosylation was found to be 2.6 µM. In the data set on N-linked glycosylation, the “NLG Inhibition max act, %” value was determined as 107.7%. In addition, the “Selectivity (EC50/AC40)” value in the data set with HepG2 cells and with HEK293 cells was more than 11.5 throughout. Also, the EC50 at 72 h in data set [1] and in data set [2] was more than 30 µM throughout.

`CN(C)S(=O)(=O)c1ccc(N2CCCC2)c(C(=O)Nc2ccccc2Cl)c1` [Entry 19, 5-(dimethylsulfamoyl)-N-(2-chlorophenyl)-2-pyrrolidin-1-ylbenzamide]: the “NLG Inhibition max act, %” value in the data set with N-linked glycosylation turned out to be 24.7%. Moreover, the concentration giving a half-maximal response (EC50) at 72 h in data set [1] and in data set [2] was more than 30 µM in each case.

Consider `CN(C)S(=O)(=O)c1ccc(N2CCCC2)c(C(=O)Nc2ccc(Br)cc2)c1` [Entry 20, 5-(dimethylsulfamoyl)-N-(4-bromophenyl)-2-pyrrolidin-1-ylbenzamide], for which, in the data set with N-linked glycosylation, the “NLG Inhibition max act, %” value is given as 32%. Moreover, the 50% effective concentration (EC50) at 72 h in data set [1] and in data set [2] was more than 30 µM throughout.

On to `CN(C)S(=O)(=O)c1ccc(N2CCCC2)c(C(=O)N2CCOCC2)c1` [Entry 21, N,N-Dimethyl-3-(morpholine-4-carbonyl)-4-(pyrrolidin-1-yl)benzenesulfonamide], for which the “NLG Inhibition max act, %” value in the data set on N-linked glycosylation was 23.6%. Moreover, the EC50 at 72 h in data set [1] and in data set [2] was more than 30 µM each time.

For the compound `CN(C)S(=O)(=O)c1ccc(N2CCCC2)c(C(=O)NC2CCCCC2)c1` [Entry 22, N-cyclohexyl-5-(dimethylsulfamoyl)-2-pyrrolidin-1-ylbenzamide], the EC50 at 72 h in data set [1] and in data set [2] was more than 30 µM each time.

`CN(C)C(=O)c1cc(S(=O)(=O)N(C)C)ccc1N1CCCC1` [Entry 23, 5-(dimethylsulfamoyl)-N,N-dimethyl-2-pyrrolidin-1-ylbenzamide]: the “NLG Inhibition max act, %” value in the data set on N-linked glycosylation was 32.1%. The half-maximal effective concentration (EC50) at 72 h in data set [1] and in data set [2] was more than 30 µM throughout.
